Data on 18 compounds can be found in PubChem BioAssay (NCI).

Each structure is given as a SMILES string.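 Assay format: 96-well plates, 48-hour exposure. GI50: concentration for 50% inhibition of growth. TGI denotes the concentration required for complete inhibition of growth.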

Experiment in all cases: NCI anticancer screen, dose series, 48 h
Assay [1] has as its system DU-145 prostate.
Assay [2] relates to HOP-62 NSCLC.
Assay [3] concerns K-562 leukemia.
Assay [4] deals with KM12 colon.
The subject of assay [5] is NCI-H522 lung.
The test system of assay [6] is OVCAR-4 ovarian.
Assay [7] deals with SF-268 CNS.
Assay [8] has as its system TK-10 renal.
In assay [9] the test system is UACC-257 melanoma.
Assay [10] has as its system HS 578T breast.

As to `C[C@@H]1C=C(CCCCCCCCCCC[C@H](O)[C@@H]2CCC(=O)O2)C(=O)O1`, the GI50 in assay [1] is 24.1 µM; in assay [2], 40.2 µM; in assay [3], 20400 nM; in assay [4], 23.6 µM; in assay [5] it was 15.9 µM; in assay [6], greater than 100 µM. In addition, the GI50 in assay [7] is 40.3 µM; in [8] it was 22.9 µM; in assay [9], 43.2 µM. In addition, the TGI in [1] was greater than 100 µM; in assay [2], greater than 100 µM; in assay [3], 56.7 µM; in assay [4], 65 µM; in [5] it was 49.2 µM; in assay [6], greater than 100 µM. For the same compound, the TGI in assay [7] is greater than 100 µM; in [8], 63.8 µM; in assay [9], greater than 100 µM.
As to `C1CC[N-]CC1.C1CC[N-]CC1.C1CC[N-]CC1.C1CC[N-]CC1.[Cl][Rh][Cl]`, the GI50 in [1] is 6.3 µM; in assay [2] it was 4.41 µM; in assay [10] it was 3.95 µM; in assay [4], 7.04 µM; in assay [5], 1.03 µM; in assay [6], 5.43 µM. For the same compound, the GI50 in [7] is 5.21 µM; in assay [8], 23.6 µM; in assay [9] it was 3.21 µM. Further, the TGI in assay [1] is 53.8 µM; in assay [2], greater than 100 µM; in [10], 54.8 µM; in assay [4] it was 21.8 µM; in assay [5], 2.65 µM; in assay [6] it was greater than 100 µM. Further, the TGI in assay [7] is 27.9 µM; in assay [8], greater than 100 µM; in assay [9] it was 69.4 µM.
For the compound `COc1cc2oc(=O)ccc2cc1C1OC(=O)C2OC21C` (centres undefined), the TGI in [1], in assay [2], in [10], in [3], in assay [4] and in assay [6] was greater than 100 µM throughout. For the same compound, the TGI in assay [7], in assay [8] and in assay [9] was greater than 100 µM throughout.
`Cc1ccc(C(CN(C)C)C(=O)c2ccccc2)cc1` (centres undefined): the GI50 in assay [1] is 1.93 µM; in assay [2], 12.2 µM; in assay [10], 4.7 µM; in assay [3], 1370 nM; in [4], 4 µM; in assay [5], 1.8 µM. The GI50 was 2.76 µM in [6], 3.13 µM in assay [7] and 5.74 µM in assay [9]. The TGI in assay [1] is 5.12 µM; in assay [2] it was 27.5 µM; in assay [10], 33.6 µM; in assay [3], 7.82 µM; in [4], 14.7 µM; in assay [5] it was 3.52 µM. The TGI in [6] is 13 µM; in assay [7], 13 µM; in [9], 19.2 µM.
As for `CCCCn1c2cc(OCc3cn(-c4ccc(Cl)cc4)nn3)ccc2c2ccnc(C)c21`, the GI50 is 15.2 µM in [1]; 7.09 µM in assay [10]; 2890 nM in assay [3]; 10.1 µM in [4]; 4.72 µM in assay [5]; 5.95 µM in [6]. Moreover, the GI50 was 9.15 µM in assay [7], 7.55 µM in [8] and 5.83 µM in assay [9]. Further, the TGI in [1] is greater than 33.3 µM; in [10] it was 32.1 µM; in assay [3], greater than 33.3 µM; in assay [4], greater than 33.3 µM; in assay [5], 13.3 µM; in assay [6], 25.5 µM. For the same compound, the values for the TGI in assay [7], in [8] and in assay [9] were greater than 33.3 µM, 14.1 µM and 11.1 µM, respectively.
Turning to `C=C1[C@@H](C)[C@H]2[C@H](Cc3ccccc3)NC(=O)[C@]23OC(=O)/C=C/[C@H](O)CCC[C@@H](C)C/C=C/[C@H]3[C@@H]1O`, the TGI in [1] is greater than 100 µM; in [2], 15 µM; in assay [3] it was greater than 100 µM; in assay [4], greater than 100 µM; in assay [5], greater than 92.2 µM; in assay [6], greater than 100 µM. The results for the TGI in assay [7], in assay [8] and in [9] were 73.6 µM, 47 µM and 59.9 µM, respectively.
As to `CCCN(CCCCC(NC(C)=O)C(=O)NCc1ccccc1)C(=O)NCCCl` (centres undefined), the TGI in [2], in assay [3], in [4], in assay [5], in [6] and in [7] was greater than 100 µM throughout. Besides, the TGI in assay [8] and in assay [9] was greater than 100 µM each time.
For the compound `CCCC1c2c(ccc3ccccc23)Oc2ccc3ccccc3c21`, the TGI in assay [1] was greater than 100 µM; in assay [2], greater than 100 µM; in assay [10], greater than 100 µM; in assay [4], greater than 100 µM; in [5] it was 80.4 µM; in [6], greater than 100 µM. Also, the TGI in assay [7] was greater than 100 µM; in assay [8] it was 98.2 µM; in assay [9], 70.8 µM.
In the case of `COC(=O)C1CC(C(=O)OC)c2nc3cc(C)ccc3nc21` (centres undefined), the TGI in assay [2], in [3], in assay [4], in assay [5], in [6] and in assay [7] was greater than 100 µM each time. In addition, the TGI in assay [8] and in [9] was greater than 100 µM each time.
Turning to `CCCCCCCCCCCCCCCCCC(=O)OCC(CN(C)CCN(C)C)OC(=O)CCCCCCCCCCCCCCCCC` (centres undefined), the TGI in assay [2], in [3], in assay [4], in assay [5], in assay [6] and in assay [7] was greater than 100 µM in each case. The TGI in [8] and in [9] was greater than 100 µM throughout.
For `Clc1ccc(Cl)c2[s+]snc12`, the TGI is greater than 100 µM in assay [2]; greater than 67.9 µM in [3]; greater than 100 µM in assay [4]; 44 µM in [5]; greater than 100 µM in [6]; greater than 100 µM in assay [7]. Moreover, the TGI in [8] and in assay [9] was greater than 100 µM in each case.
Regarding `CC(=O)Nc1ccc(C(=O)N2N=C(C)/C(=C/c3ccccc3O)C2=O)cc1`, the TGI in [2], in assay [3], in assay [4], in [5], in assay [6] and in [7] was greater than 100 µM throughout. The TGI in assay [8] and in assay [9] was greater than 100 µM each time.
With `N#CC(NNC(=O)c1ccccc1O)c1ccc(O)cc1` (centres undefined), the TGI in [2], in [3], in assay [4], in assay [5], in [6] and in assay [7] was greater than 100 µM throughout. For the same compound, the TGI in [8] and in [9] was greater than 100 µM each time.
In the case of `O=Cc1c(-c2cc(O)ccc2O)nc2sccn12`, the GI50 in [1] was 22.6 µM; in [2], 10.4 µM; in [10], 35.7 µM; in [4], 5.05 µM; in [6] it was 14.5 µM; in [7], 3.83 µM. Further, the GI50 in assay [8] is 11 µM; in [9], 29.9 µM. In addition, the TGI was 49.2 µM in assay [1]; 26.4 µM in assay [2]; greater than 100 µM in assay [10]; 20.5 µM in [4]; 32.9 µM in assay [6]; 38.3 µM in assay [7]. For the same compound, the results for the TGI in [8] and in [9] were 23.6 µM and 95.8 µM, respectively.
On to `O=c1c2ccccc2c2ccccc2c(=O)n1-c1cc2c3ccccc3ccc2c2ccccc12`, for which the TGI in assay [1], in assay [2], in [10], in assay [4], in assay [5] and in assay [6] was greater than 100 µM throughout. In addition, the TGI in [7], in [8] and in assay [9] was greater than 100 µM each time.
Regarding `COCCn1cc(-c2csc(-c3c[nH]c4ccccc34)n2)c2cccnc21`, the GI50 is 15.4 µM in assay [1]; 2.82 µM in [2]; 9.14 µM in assay [10]; 2800 nM in [3]; 0.762 µM in assay [4]; 1.76 µM in assay [6]. Also, the figures for the GI50 in assay [7] and in assay [9] were 6.98 µM and greater than 100 µM, respectively. The TGI in assay [1], in [2], in [10], in [3], in [4] and in [6] was greater than 100 µM in each case. Moreover, the TGI in assay [7] and in assay [9] was greater than 100 µM throughout.
`COC(=O)C(CCS(=O)(=O)CC(=O)C(=O)Nc1cccc(C(C)=O)c1)C(=O)OC`: the TGI in [2], in assay [3], in assay [4], in assay [5], in assay [6] and in assay [7] was greater than 100 µM in each case. In addition, the TGI in assay [8] and in assay [9] was greater than 100 µM throughout.
Regarding `CCOC(=O)CC(=O)Sc1ccccc1`, the TGI was 65.6 µM in assay [2]; 58.7 µM in assay [3]; greater than 100 µM in assay [4]; 24.3 µM in assay [5]; greater than 100 µM in assay [6]; 23.1 µM in assay [7]. Further, the TGI in assay [8] was greater than 100 µM; in assay [9], 91.4 µM.
